Paper PMC12386745, “Benzofuran Derivatives with Antimicrobial and Anti-Inflammatory Activities from Penicillium crustosum SCNU-F0046” (International Journal of Molecular Sciences, 2025)
Values after ≈ are worked out from the molar mass of the structure shown. Read-outs that look alike come from different tables or passages of the source.

How the values were obtained:
[1] = system: Escherichia coli (ATCC 25922); assay: Antimicrobial MIC, 96-well broth dilution; assay type: cell-based; conditions: ATCC25922, tested range 0.78–100 μg/mL, 24 h at 27 °C, means of three parallel experiments, read-out: minimum inhibitory concentration (MIC)
Description: (§1) In contrast, for fungal inhibition activity, aza-benzofuran compounds show lower activity than oxa-benzofuran compounds. […] In terms of antifungal activity, when compound 5 and 6 form hydroxyl groups at position C-6, their polarity […], making them more susceptible to penetrating fungal cell membranes through hydrophobic mechanisms.
(§2) The minimum inhibitory concentration (MIC) values of antimicrobial activity of compounds 1–4 against three different plant pathogenic […], including Penicillium italicum, Fusarium oxysporum and Colletotrichum musae, and three human pathogenic bacteria, including Salmonella typhimurium (ATCC 6539), Escherichia coli (ATCC 25922) and Staphylococcus aureus (ATCC 12598), were determined via serial dilution technique employing 96-well microtiter plates. In brief, the bacterial cell suspension was adjusted to an inoculum density of 5 × 10^5 cfu/mL by comparison with a MacFarland standard before use. The fungal thallus concentration was adjusted to 1 × 10^6 cfu/mL. The tested compounds in dimethyl sulfoxide (DMSO) were added to PDB/MH broth medium to obtain a series of final concentrations of 100, 50, 25, 12.5, 6.25, 3.13, 1.57, 0.78 μg/mL. DMSO and carbendazim/ciprofloxacin served as negative and positive controls, respectively. The antifungal plates were incubated for 48 h at 27 °C, and the antibacterial plates were incubated for 24 h at 27 °C. Ten microliters of resazurin dissolved in DMSO at 100 μg/mL was added to each well of the microplate, followed by incubation at 27 °C for 3 h. We determined the MIC values by observing color changes using the visual endpoint method. For each parallel experiment, three replicates were measured.

[2] = system: Salmonella typhimurium (ATCC 6539); assay: Antimicrobial MIC, 96-well broth dilution; assay type: cell-based; conditions: Salmonella enterica, 24 h, read-out: minimum inhibitory concentration (MIC)
Description: as §1, §2

[3] = system: Staphylococcus aureus (ATCC 12598); assay: Antimicrobial MIC, 96-well broth dilution; assay type: cell-based; conditions: read-out: minimum inhibitory concentration (MIC)
Description: as §1, §2

[4] = system: Penicillium italicum; assay: Antimicrobial MIC, 96-well broth dilution; assay type: cell-based; conditions: tested range 0.78–100 μg/mL, 48 h at 27 °C, means of three parallel experiments, read-out: minimum inhibitory concentration (MIC)
Description: as §1, §2

[5] = system: Fusarium oxysporum; assay: Antimicrobial MIC, 96-well broth dilution; assay type: cell-based; conditions: tested range 0.78–100 μg/mL, 48 h at 27 °C, means of three parallel experiments, read-out: minimum inhibitory concentration (MIC)
Description: as §1, §2

[6] = system: Colletotrichum musae; assay: Antimicrobial MIC, 96-well broth dilution; assay type: cell-based; conditions: tested range 0.78–100 μg/mL, 48 h at 27 °C, means of three parallel experiments; for MIC: 48 h, read-out: minimum inhibitory concentration (MIC)
Description: as §1, §2

[7] = system: LPS-stimulated RAW 264.7 cells; assay: Inhibition of NO production (Griess reagent) in LPS-stimulated macrophages; assay type: cell-based, mouse; conditions: 4 h pretreatment, 1 μg/mL LPS for 24 h, mean ± SD, three independent experiments
Procedure: (§3) The anti-inflammatory activities of compounds 1–4 were evaluated by assessing the inhibition of nitric oxide (NO) production in lipopolysaccharide (LPS)-stimulated murine macrophage RAW 264.7 cells. […] In addition, we also tested the cytotoxicity of compounds 1–4, and cytotoxicity was assessed independently of LPS stimulation.
The nitrite concentration in the culture medium was measured using the Griess reagent, as previously reported, with slight modifications. The mouse macrophage cell line RAW 264.7 cells were purchased from the Shanghai Institutes for Biological Sciences and cultured in DMEM (high-glucose) medium supplemented with 10% (v/v) fetal bovine serum, 100 μg·mL^−1 penicillin and streptomycin, and 10 mM HEPES at 37 °C in a 5% CO2 atmosphere. Cells were pretreated with different samples dissolved in serum-free culture medium containing 0.5% DMSO (10, 5, 2.5, 1.25, and 0.625 μM) for 4 h, followed by stimulation with 1 μg·mL^−1 LPS for 24 h. Then, 50 μL of cell culture medium was mixed with 100 μL of Griess reagent I and II and incubated at room temperature for 10 min with horizontal shaking, after which the absorbance at 540 nm was measured in a microplate reader. Indomethacin was used as a positive control and was purchased from Sigma-Aldrich (St. Louis, MI, USA) Co. Wells with DMSO were used as a negative control (final DMSO concentration was 0.1%). The NO production inhibition rate was calculated using the flowing formula: NO production inhibition rate (%) =LPS group−Compound group/LPS group−DMSO group×100
IC50 is the concentration of the compound that inhibits 50% of NO production relative to the LPS group. All assays were performed in triplicate. The inhibition rates were calculated and plotted versus test concentrations to afford the IC50 (±SD) for three independent tests. Data were analyzed using SPSS 26.0 software. p < 0.05 was considered statistically significant.

[8] = Cytotoxicity, MTT assay; assay type: cell-based; conditions: mouse
Procedure: as §3
Cell viability was evaluated using MTT (3-(4,5-Dimethylthiazol-2-yl)-2,5-diphenyltetrazolium bromide) assay. RAW 264.7 cells were seeded in 96-well plates at a density of 5 × 10^3 cells per well and incubated overnight. Cells were incubated with tested compounds (DMSO as solvent) at 37 °C for 72 h. Subsequently, 50 μL of MTT/medium solution (0.5 mg/mL) was added to each well, and the cells were incubated for 1 h at 37 °C. After removing the MTT/medium, 100 μL of DMSO was added to each well. The plate was shaken to dissolve the precipitate, and activity was measured at 540 nm using a microplate reader. Cell viability was calculated using the following formula: Cell viability/% = (Absorbance of treated cells − Absorbance of blank control)/(Absorbance of negative control − Absorbance of blank control) × 100. The half-maximal inhibitory concentration (IC50) was calculated with Origin 8 Pro.

[9] = ATCC12598, tested range 0.78–100 μg/mL, 24 h at 27 °C, means of three parallel experiments
[10] = Mus musculus, RAW264.7, RAW 264.7 cells
[11] = RAW 264.7 cells, MTT, 72 h, without LPS stimulation, read-out: Cytotoxicity (CC50)

`O=C(O)c1cn(C2CC2)c2cc(N3CCNCC3)c(F)cc2c1=O` [Ciprofloxacin, reference compound] showed an MIC [1] of 0.8 µg/mL (≈ 2.41 µM), an MIC [2] of 0.2 µg/mL (≈ 0.604 µM) and an MIC [3, 9] of 0.1 µg/mL (≈ 0.302 µM).

`CC(C)C1(O)Oc2c(ccc(CO)c2CO)C1=O` (centres unmarked) [Compound 6] showed an MIC [1] of 100 µg/mL (≈ 396 µM), an MIC [2] of 50 µg/mL (≈ 198 µM) and an MIC [4] of 12.5 µg/mL (≈ 49.6 µM). It also gave an MIC [5] of 50 µg/mL (≈ 198 µM), an MIC [3, 9] of 50 µg/mL (≈ 198 µM) and an MIC [6] of 12.5 to 25 µg/mL (≈ 49.6 to 99.1 µM). The “minimum inhibitory concentration (MIC)” value [6] was 12.5 µg/mL (≈ 49.6 µM).

Compound `CC(C)(O)C1Cc2ccc(C=CC(=O)O)c(CO)c2O1` (centres unmarked) [Compound 5] has an MIC [1] of 50 µg/mL (≈ 180 µM), an MIC [2] of 50 µg/mL (≈ 180 µM) and an MIC [4] of 12.5 µg/mL (≈ 44.9 µM). It also gave an MIC [5] of 50 µg/mL (≈ 180 µM), an MIC [3, 9] of 50 µg/mL (≈ 180 µM) and an MIC [6] of 12.5 to 25 µg/mL (≈ 44.9 to 89.8 µM). The “minimum inhibitory concentration (MIC)” value [6] was 25 µg/mL (≈ 89.8 µM).

`Cc1ccc(-c2cc(C(F)(F)F)nn2-c2ccc(S(N)(=O)=O)cc2)cc1` [Celecoxib, reference compound] gave an IC50 [7, 10] of 32.1 ± 1.7 µM and a CC50 at 72 h [8] greater than 50 µM.

`Cc1cc2ccc3cc(C(C)(C)O)oc3c2cn1` [Compound 1] gave an MIC [1] of 25 µg/mL (≈ 104 µM), an MIC [2] of 12.5 µg/mL (≈ 51.8 µM) and an MIC [4] of 50 µg/mL (≈ 207 µM). The MIC [5] was 50 µg/mL (≈ 207 µM), the MIC ([3]; ATCC12598, 24 h) was 12.5 µg/mL (≈ 51.8 µM) and the MIC [6] was 50 µg/mL (≈ 207 µM). For the same compound, the IC50 [7, 10] was 17.3 µM, the IC50 ([7]; RAW 264.7 cells) was 17.3 ± 1.6 µM and the CC50 at 72 h [8, 11] was greater than 50 µM.

`Cc1cc2ccc3c(c2cn1)O[C@@](O)(C(C)C)C3=O` [Compound 3, TMC-120 C] gave a CC50 at 72 h [8, 11] greater than 50 µM.

`Cc1cc2ccc3c(c2cn1)OC(C(C)(C)O)C3` (centres unmarked) [Compound 2] showed an MIC [1] of 50 µg/mL (≈ 206 µM), an MIC [2] of 50 µg/mL (≈ 206 µM) and an MIC [4] of 50 µg/mL (≈ 206 µM). It also gave an MIC [5] of 50 µg/mL (≈ 206 µM), an MIC [3, 9] of 25 µg/mL (≈ 103 µM) and an MIC [6] of 25 µg/mL (≈ 103 µM). The IC50 [7, 10] was 31.5 ± 2.3 µM and the CC50 at 72 h [8, 11] was greater than 50 µM.

Work on `CC(C)=C1Oc2c(ccc3cc(C)ncc23)C1=O` [Compound 4, TMC-120 B] yielded a CC50 at 72 h [8, 11] greater than 50 µM.

`COC(=O)Nc1nc2ccccc2[nH]1` [Carbendazim, reference compound] gave an MIC [4] of 0.78 µg/mL (≈ 4.08 µM), an MIC [5] of 1.56 µg/mL (≈ 8.16 µM) and an MIC [6] of 0.78 µg/mL (≈ 4.08 µM).
